Here are results for 34 compounds from patent US20100003246A1, “Novel heterocyclic compounds and uses therof” (priority 2008, published 2010).

For this test, the target named is T1, b-Raf(V600E) (Homo sapiens, UniProt P15056, V600E).
T1 construct: made in house
Briefly: Raf/Mek Amplified Luminescence Proximity Homogeneous Assay (Alpha Screen), b-Raf(V600E). In kind it is biochemical. Particulars: mutant b-Raf(V600E), read-out: mut-b-RAF (IC50 in uM). In a few lines:
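IC50 derived by non-linear regression from AlphaScreen luminescence of phospho-MEK (anti-p-MEK antibody). Reaction: ~4 pM b-Raf(V600E), ~10 nM kinase-dead biotinylated Mek, 60 min compound pre-incubation, then 3 h with ATP at room temperature in pH 7.5 Tris/MgCl2/DTT buffer, quenched with EDTA.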

T1 sequence (P15056 whole entry V600E): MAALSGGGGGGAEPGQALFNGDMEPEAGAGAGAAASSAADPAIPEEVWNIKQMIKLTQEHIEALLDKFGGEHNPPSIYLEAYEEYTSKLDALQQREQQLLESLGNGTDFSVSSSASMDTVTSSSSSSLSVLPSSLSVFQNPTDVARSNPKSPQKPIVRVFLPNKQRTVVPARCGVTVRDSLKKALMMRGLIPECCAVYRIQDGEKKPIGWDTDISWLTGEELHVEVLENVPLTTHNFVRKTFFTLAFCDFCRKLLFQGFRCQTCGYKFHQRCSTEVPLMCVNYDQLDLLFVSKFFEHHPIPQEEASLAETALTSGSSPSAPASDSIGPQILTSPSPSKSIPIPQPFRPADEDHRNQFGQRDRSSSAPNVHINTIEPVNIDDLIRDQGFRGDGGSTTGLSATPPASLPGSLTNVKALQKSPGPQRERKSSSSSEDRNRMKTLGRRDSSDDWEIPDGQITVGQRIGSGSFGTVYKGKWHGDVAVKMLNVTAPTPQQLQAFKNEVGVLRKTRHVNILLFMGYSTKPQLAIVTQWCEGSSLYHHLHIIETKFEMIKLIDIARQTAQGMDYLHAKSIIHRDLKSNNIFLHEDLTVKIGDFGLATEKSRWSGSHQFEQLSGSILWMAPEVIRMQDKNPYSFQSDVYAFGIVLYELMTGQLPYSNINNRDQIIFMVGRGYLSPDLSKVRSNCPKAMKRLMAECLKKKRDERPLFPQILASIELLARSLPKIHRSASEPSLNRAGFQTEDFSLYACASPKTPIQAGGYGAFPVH

For the compound `COc1cc(-c2[nH]c(-c3ccccc3)nc2-c2ccnc(N[C@H]3CCCN(S(=O)(=O)c4ccc(Cl)cc4)C3)n2)cnc1N` [Compound 62, (S)-4-(5-(6-amino-5-methoxypyridin-3-yl)-2-phenyl-1H-imidazol-4-yl)-N-(1-(4-chlorophenylsulfonyl)piperidin-3-yl)pyrimidin-2-amine], the IC50 amounted to 0.0003 µM. As for `COc1cc(-c2[nH]c(-c3ccc(F)cc3)nc2-c2ccnc(NC3CCCC3)n2)cnc1N` [Compound 164, 4-(5-(6-amino-5-methoxypyridin-3-yl)-2-(4-fluorophenyl)-1H-imidazol-4-yl)-N-cyclopentylpyrimidin-2-amine], the IC50 amounted to 0.0163 µM.

For `CC(=O)Nc1n[nH]c2cc(-c3[nH]c(-c4ccccc4)nc3-c3ccncc3)ccc12` [Compound 28, N-(6-(2-phenyl-4-(pyridin-4-yl)-1H-imidazol-5-yl)-1H-indazol-3-yl)acetamide], the concentration for half-maximal inhibition (IC50) was 0.449 µM.

`COc1cc(-c2nc(-c3ccc(F)cc3)[nH]c2-c2ccnc(NC[C@H](C)NC(=O)[C@H](C)OC)n2)cnc1N` [Compound 197, (S)-N-((S)-1-(4-(4-(6-amino-5-methoxypyridin-3-yl)-2-(4-fluorophenyl)-1H-imidazol-5-yl)pyrimidin-2-ylamino)propan-2-yl)-2-methoxypropanamide]: the IC50 came out at 0.0001 µM. In the case of `CN(C)c1cncc(-c2[nH]c(-c3ccc(F)cc3)nc2-c2ccncc2)c1` [Compound 157, 5-(2-(4-fluorophenyl)-4-(pyridin-4-yl)-1H-imidazol-5-yl)-N,N-dimethylpyridin-3-amine], the IC50 came to 0.017 µM.

With `COc1cncc(-c2[nH]c(-c3ccccc3)nc2-c2ccncc2)c1` [Compound 36, 3-methoxy-5-(2-phenyl-4-(pyridin-4-yl)-1H-imidazol-5-yl)pyridine], the IC50 turned out to be 0.013 µM. Consider `COc1nc(-c2nc(C(C)(C)C)[nH]c2-c2ccnc(NC[C@H](C)NC(=O)OC(C)C)n2)c(C)nc1N` [Compound 257, (S)-isopropyl 1-(4-(4-(5-amino-6-methoxy-3-methylpyrazin-2-yl)-2-tert-butyl-1H-imidazol-5-yl)pyrimidin-2-ylamino)propan-2-ylcarbamate], for which the IC50 amounted to 0.0012 µM. As for `CCOC(=O)N[C@@H](C)CNc1nccc(-c2[nH]c(C(C)(C)C)nc2-c2cnc(N)c(OC)n2)n1` [Compound 236, (S)-ethyl 1-(4-(4-(5-amino-6-methoxypyrazin-2-yl)-2-tert-butyl-1H-imidazol-5-yl)pyrimidin-2-ylamino)propan-2-ylcarbamate], the IC50 amounted to 0.0001 µM. In the case of `c1ccc(-c2nc(-c3ccncc3)c(-c3ccc4cn[nH]c4c3)[nH]2)cc1` [Compound 32, 6-(2-phenyl-4-(pyridin-4-yl)-1H-imidazol-5-yl)-1H-indazole], the IC50 was found to be 0.017 µM. Take `CNC(=O)N[C@@H](C)CNc1nccc(-c2[nH]c(C(C)(C)C)nc2-c2cnc(N)c(OC)c2)n1` [Compound 219, (S)-1-(1-(4-(4-(6-amino-5-methoxypyridin-3-yl)-2-tert-butyl-1H-imidazol-5-yl)pyrimidin-2-ylamino)propan-2-yl)-3-methylurea]: the IC50 worked out at 0.0003 µM. In the case of `COCC(=O)NCCNc1nccc(-c2nc(-c3ccc(F)cc3)[nH]c2-c2cc(C)c3ncnn3c2)n1` [Compound 202, N-(2-(4-(2-(4-fluorophenyl)-5-(8-methyl-[1,2,4]triazolo[1,5-a]pyridin-6-yl)-1H-imidazol-4-yl)pyrimidin-2-ylamino)ethyl)-2-methoxyacetamide], the IC50 was 0.025 µM. Take `COc1cc(-c2oc(-c3ccccc3)nc2-c2ccncc2)cnc1N` [Compound 89, 3-methoxy-5-(2-phenyl-4-(pyridin-4-yl)oxazol-5-yl)pyridin-2-amine]: the IC50 is 0.0137 µM. `COc1cc(-c2nc(-c3ccc(F)cc3)oc2-c2ccncc2)cnc1N` [Example 13, 5-(2-(4-fluorophenyl)-5-(pyridin-4-yl)oxazol-4-yl)-3-methoxypyridin-2-amine]: the IC50 was determined as 0.0005 µM. In the case of `COc1nc(-c2nc(C(C)(C)C)[nH]c2-c2ccnc(NC[C@H](C)NC(=O)OC(C)C)n2)cnc1N` [Compound 237, (S)-isopropyl 1-(4-(4-(5-amino-6-methoxypyrazin-2-yl)-2-tert-butyl-1H-imidazol-5-yl)pyrimidin-2-ylamino)propan-2-ylcarbamate], the IC50 was 0.0001 µM. Consider `COc1cc(-c2nc(-c3ccccc3)[nH]c2-c2ccnc(C)c2)cnc1N` [Compound 48, 3-methoxy-5-(5-(2-methylpyridin-4-yl)-2-phenyl-1H-imidazol-4-yl)pyridin-2-amine], for which the IC50 came to 0.12 µM. `CC[C@H](C)Nc1nccc(-c2nc(-c3ccc(F)cc3)[nH]c2-c2cnc(N)c(OC)c2)n1` [Compound 176, (S)-4-(5-(6-amino-5-methoxypyridin-3-yl)-2-(4-fluorophenyl)-1H-imidazol-4-yl)-N-sec-butylpyrimidin-2-amine]: the IC50 is 0.0046 µM. Consider `COc1cc(-c2nc(-c3ccc(F)cc3)[nH]c2-c2ccnc(Nc3cccc(C(F)(F)F)c3)n2)cnc1N` [Compound 171, 4-(4-(6-amino-5-methoxypyridin-3-yl)-2-(4-fluorophenyl)-1H-imidazol-5-yl)-N-(3-(trifluoromethyl)phenyl) pyrimidin-2-amine], for which the 50% inhibitory concentration (IC50) is 0.0013 µM. `COc1cc(-c2nc(-c3ccccc3)[nH]c2-c2ccnc(NC[C@H](C)O)n2)cnc1N` [Compound 74, (S)-1-(4-(4-(6-amino-5-methoxypyridin-3-yl)-2-phenyl-1H-imidazol-5-yl)pyrimidin-2-ylamino)propan-2-ol]: the IC50 turned out to be 0.0006 µM.

Consider `c1ccc(-c2nc(-c3ccncc3)c(-c3ccc4cnoc4c3)[nH]2)cc1` [Compound 34, 6-(2-phenyl-4-(pyridin-4-yl)-1H-imidazol-5-yl)benzo[d]isoxazole], for which the IC50 was 0.005 µM. Consider `COC(=O)c1cccc(-c2nc(-c3ccncc3)c(-c3cnc(N)c(OC)c3)[nH]2)c1` [Compound 101, methyl 3-(5-(6-amino-5-methoxypyridin-3-yl)-4-(pyridin-4-yl)-1H-imidazol-2-yl)benzoate], for which the IC50 turned out to be 0.0013 µM. Under `CNc1nccc(-c2[nH]c(-c3ccccc3)nc2-c2cnc(N)c(OC)c2)n1` [Compound 56, 4-(4-(6-amino-5-methoxypyridin-3-yl)-2-phenyl-1H-imidazol-5-yl)-N-methylpyrimidin-2-amine] stands 0.0029 µM. Under `CC[C@@H](C)Nc1nccc(-c2nc(-c3ccc(F)cc3)[nH]c2-c2cnc(N)c(OC)c2)n1` [Compound 181, (R)-4-(5-(6-amino-5-methoxypyridin-3-yl)-2-(4-fluorophenyl)-1H-imidazol-4-yl)-N-sec-butylpyrimidin-2-amine] stands 0.0099 µM; under `COc1cc(-c2[nH]c(-c3ccccc3)nc2-c2ccn[nH]2)cnc1N` [Compound 86, 3-methoxy-5-(2-phenyl-4-(1H-pyrazol-5-yl)-1H-imidazol-5-yl)pyridin-2-amine], 0.537 µM; under `COc1cc(-c2[nH]c(-c3ccccc3)nc2-c2ccnc(N[C@@H]3CCCNC3)n2)cnc1N` [Compound 65, (R)-4-(5-(6-amino-5-methoxypyridin-3-yl)-2-phenyl-1H-imidazol-4-yl)-N-(piperidin-3-yl)pyrimidin-2-amine], 0.0599 µM. Regarding `COc1cc(Nc2nccc(-c3[nH]c(C(C)(C)C)nc3-c3cnc(N)c(OC)n3)n2)ccn1` [Example 9, 4-(4-(5-amino-6-methoxypyrazin-2-yl)-2-tert-butyl-1H-imidazol-5-yl)-N-(2-methoxypyridin-4-yl)pyrimidin-2-amine], the IC50 is 0.0001 µM. As for `COc1cc(-c2[nH]c(-c3cc(C)ccc3F)nc2-c2ccncc2)cnc1N` [Compound 139, 5-(2-(2-fluoro-5-methylphenyl)-4-(pyridin-4-yl)-1H-imidazol-5-yl)-3-methoxypyridin-2-amine], the IC50 came to 0.0012 µM. For the compound `COc1cc(-c2nc(-c3ccccc3)[nH]c2-c2ccncn2)cnc1N` [Compound 61, 3-methoxy-5-(2-phenyl-5-(pyrimidin-4-yl)-1H-imidazol-4-yl)pyridin-2-amine], the IC50 is 0.0049 µM. Under `COc1cc(-c2nc(-c3ccccc3)[nH]c2-c2ccnc(NC[C@@H](C)O)n2)cnc1N` [Compound 75, (R)-1-(4-(4-(6-amino-5-methoxypyridin-3-yl)-2-phenyl-1H-imidazol-5-yl)pyrimidin-2-ylamino)propan-2-ol] stands 0.0011 µM; under `COc1cc(-c2nc(-c3ccc(OC(F)(F)F)cc3)[nH]c2-c2ccncc2)cnc1N` [Compound 79, 3-methoxy-5-(5-(pyridin-4-yl)-2-(4-(trifluoromethoxy)phenyl)-1H-imidazol-4-yl)pyridin-2-amine], 0.002 µM; under `COCC(=O)N[C@@H](C)CNc1nccc(-c2[nH]c(C(C)C)nc2-c2cnc(N)c(OC)n2)n1` [Compound 227, (S)-N-(1-(4-(4-(5-amino-6-methoxypyrazin-2-yl)-2-isopropyl-1H-imidazol-5-yl)pyrimidin-2-ylamino)propan-2-yl)-2-methoxyacetamide], 0.0003 µM.

Regarding `COc1cc(-c2[nH]c(-c3cccc4cccnc34)nc2-c2ccncc2)cnc1N` [Compound 168], the IC50 amounted to 0.0009 µM. On to `COc1cc(-c2nc(C(C)(C)C)[nH]c2-c2ccnc(Nc3ccc(C(F)(F)F)cc3)n2)cnc1N` [Compound 221, 4-(4-(6-amino-5-methoxypyridin-3-yl)-2-tert-butyl-1H-imidazol-5-yl)-N-(4-(trifluoromethyl)phenyl)-pyrimidin-2-amine], for which the IC50 stood at 0.0002 µM. Regarding `COC(=O)N[C@@H](C)CNc1nccc(-c2nc(C(C)(C)C)[nH]c2-c2cnc(N)c(C(C)=O)c2)n1` [Compound 235, (S)-methyl-1-(4-(5-(5-acetyl-6-aminopyridin-3-yl)-2-tert-butyl-1H-imidazol-4-yl)pyrimidin-2-ylamino)propan-2-ylcarbamate], the IC50 stood at 0.0004 µM. Regarding `COc1cc(-c2nc(-c3ccc(F)cc3)sc2-c2ccncc2)cnc1N` [Example 16, 5-(2-(4-fluorophenyl)-5-(pyridin-4-yl)thiazol-4-yl)-3-methoxypyridin-2-amine], the IC50 was 0.0143 µM.

Usually IC50 stands for the concentration needed to halve the response being measured.
